Data reported in patent US8143282B2, “Heterocyclic compounds” (S*BIO Pte Ltd., priority 2005, dated 2012).

Tests used:
[1] = system: Colo205 cells; assay: Cell-based proliferation assay for GI50 (CyQUANT), Colo205; details: Homo sapiens, COLO 205, 96 h treatment, read-out: Cellular or Growth Inhibition Activity in Colo205 cells, GI50
Description: Human colon cancer cell lines (Colo205, HCT116), Ovarian cancer cell line (A2780), Hepatoma cell line (HEP3B), Prostate cancer cell line (PC3) were obtained from ATCC or ECACC. Colo205 cells were cultivated in RPMI 1640 containing 2 mM L-Glutamine, 5% FBS, 1.0 mM Na Pyruvate, 1 U/ml of penicillin and 1 μg of streptomycin. HCT116 cells were cultivated in McCoy's containing RPMI 1640 containing 2 mM L-Glutamine, 5% FBS, 1 U/ml of penicillin and 1 μg of streptomycin. A2780 cells were cultivated in RPMI 1640 containing 2 mM L-Glutamine, 5% FBS, 1 U/ml of penicillin and 1 μg of streptomycin. HEP3B cells were cultivated in EMEM containing 2 mM L-glutamine, 5% FBS, 1% non essential amino acid, 1 mM Na Pyruvate, 1 U/ml of penicillin and 1 μg of streptomycin. PC3 cells were cultivated in F12K, 2 mM L-glutamine, 5% FBS, 1 U/ml of penicillin and 1 μg of streptomycin. PC3, Colo205, and HCT116 cells were seeded in 96-wells plate at 1000, 5000 and 6000 cells per well respectively. A2780 and HEP3B cells were seeded in 96-wells plate at 4000 cells per well respectively. The plates were incubated at 37° C., 5% CO2, for 24 h. Cells were treated with compounds at various concentrations for 96 h. Cell growth was then monitored using CyQUANT® cell proliferation assay (Invitrogen Pte Ltd). Dose response curves were plotted to determine GI50 values for the compounds using XL-fit (ID Business Solution, Emeryville, Calif.). GI50 is defined as the concentration of compound required for 50% inhibition of cell growth.

[2] = target: T1, HDAC1 enzyme (Homo sapiens, UniProt Q13547); assay: In vitro HDAC assay for determination of IC50 values (BIOMOL fluorescent-based HDAC activity assay); format: biochemical
T1 construct: Amplification of human HDAC1 coding region from this cDNA library was cloned separately into the baculovirus expression pDEST20 vector; made in house; host or cells: SF9 insect cells, pDEST20-HDAC1 baculovirus
T1 sequence (Q13547 whole entry): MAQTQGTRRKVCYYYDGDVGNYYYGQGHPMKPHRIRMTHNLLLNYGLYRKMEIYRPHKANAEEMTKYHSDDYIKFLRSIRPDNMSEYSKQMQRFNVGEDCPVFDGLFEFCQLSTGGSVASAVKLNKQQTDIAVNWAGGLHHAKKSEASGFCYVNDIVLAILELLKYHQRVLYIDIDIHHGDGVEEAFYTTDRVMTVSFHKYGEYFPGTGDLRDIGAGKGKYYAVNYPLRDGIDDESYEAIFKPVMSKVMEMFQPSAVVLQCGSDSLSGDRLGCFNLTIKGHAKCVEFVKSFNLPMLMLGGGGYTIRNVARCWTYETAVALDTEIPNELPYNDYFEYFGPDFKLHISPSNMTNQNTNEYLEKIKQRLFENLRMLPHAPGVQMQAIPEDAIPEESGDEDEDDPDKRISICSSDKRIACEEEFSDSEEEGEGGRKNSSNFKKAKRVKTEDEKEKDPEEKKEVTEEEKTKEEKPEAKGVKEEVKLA
Description: Human cDNA library was prepared using cultured SW620 cells. Amplification of human HDAC1 coding region from this cDNA library was cloned separately into the baculovirus expression pDEST20 vector (GATEWAY Cloning Technology, Invitrogen Pte Ltd). The pDEST20-HDAC1 construct was confirmed by DNA sequencing. Recombinant baculovirus was prepared using the Bac-To-Bac method following the manufacturer's instruction (Invitrogen Pte Ltd).
Expression of GST-HDAC1 was done by infecting SF9 cells (Invitrogen Pte Ltd) with pDEST20-HDAC1 baculovirus at MOI=1 for 48 h. Soluble cell lysate was incubated with pre-equilibrated Glutathione Sepharose 4B beads (Amersham) at 4° C. for 2 h. The beads were washed with PBS buffer for 3 times. The GST-HDAC1 protein was eluted by elution buffer containing 50 mM Tris, pH8.0, 150 mM NaCl, 1% Triton X-100 and 10 mM or 20 mM reduced Glutathione. The purified GST-HDAC1 protein was dialyzed with HDAC storage buffer containing 10 mM Tris, pH7.5, 100 mM NaCl and 3 mM MgCl2. 20% Glycerol was added to purified GST-HDAC1 protein before storage at −80° C.
The assay has been carried out in 96 well format and the BIOMOL fluorescent-based HDAC activity assay has been applied. […] Flur de lys Developer was added and the reaction was incubated for 10 min. Briefly, deacetylation of the substrate sensitizes it to the developer, which then generates a fluorophore. The fluorophore is excited with 360 nm light and the emitted light (460 nm) is detected on a fluorometric plate reader (Tecan Ultra Microplate detection system, Tecan Group Ltd.).
The analytical software, Prism 4.0 (GraphPad Software Inc) has been used to generate IC50 from a series of data.

Row | GI50 [1] [nM] | IC50 [2] [nM] | SMILES
1 | 670 | 100 | O=C(/C=C/c1ccc2c(c1)ncn2C1CCCN(CCCc2ccccc2)C1)NO (stereo not shown) [Compound 97, (E)-N-hydroxy-3-(1-(1-(3-phenylpropyl)piperidin-3-yl)-1H-benzo[d]imidazol-5-yl)acrylamide]
2 | 260 | 66 | CC(Cc1nc2cc(/C=C/C(=O)NO)ccc2n1CCN(C)C)CC(C)(C)C (stereo not shown) [Compound 51, 3-[1-(2-Dimethylamino-ethyl)-2-(2,4,4-trimethyl-pentyl)-1H-benzoimidazol-5-yl]-N-hydroxy-acrylamide]
3 | 370 | 40 | CC/C=C\CCc1nc2cc(/C=C/C(=O)NO)ccc2n1CCN(CC)CC [Compound 26, 3-[1-(2-Diethylamino-ethyl)-2-hex-3-enyl-1H-benzoimidazol-5-yl]-N-hydroxy-acrylamide]
4 | 1770 | 140 | C=CCCc1nc2cc(/C=C/C(=O)NO)ccc2n1CC(C)(C)CN(C)C [Compound 10, 3-[2-But-3-enyl-1-(3-dimethylamino-2,2-dimethyl-propyl)-1H-benzoimidazol-5-yl]-N-hydroxy-acrylamide]
5 | 920 | 62 | CCN(CC)CCn1c(CC(C)CC(C)(C)C)nc2cc(/C=C/C(=O)NO)ccc21 (stereo not shown) [Compound 41, 3-[1-(2-Diethylamino-ethyl)-2-(2,4,4-trimethyl-pentyl)-1H-benzoimidazol-5-yl]-N-hydroxy-acrylamide]
6 | 2600 | 54 | CCCC(=O)NCc1nc2cc(/C=C/C(=O)NO)ccc2n1CCN(CC)CC [Compound 62, N-[1-(2-Diethylamino-ethyl)-5-(2-hydroxycarbamoyl-vinyl)-1H-benzoimidazol-2-ylmethyl]-butyramide]
7 | 860 | 96 | CCNCCn1c(CC(C)(C)C)nc2cc(/C=C/C(=O)NO)ccc21 [Compound 36]
8 | 1520 | 110 | CCCCc1nc2cc(/C=C/C(=O)NO)ccc2n1CCN(C)CC [Compound 85, 3-{2-Butyl-1-[2-(ethyl-methyl-amino)-ethyl]-1H-benzoimidazol-5-yl}-N-hydroxy-acrylamide]
9 | 600 | 64 | CCCCCN1CCCC(n2cnc3cc(/C=C/C(=O)NO)ccc32)C1 (stereo not shown) [Compound 94, (E)-N-hydroxy-3-(1-(1-pentylpiperidin-3-yl)-1H-benzo[d]imidazol-5-yl)acrylamide]
10 | 870 | 80 | CCCCCCCN(CC)CCn1cnc2cc(/C=C/C(=O)NO)ccc21 [Compound 89, 3-{1-[2-(Ethyl-heptyl-amino)-ethyl]-1H-benzoimidazol-5-yl}-N-hydroxy-acrylamide]
11 | 880 | 120 | CCCN(CC)CCn1cnc2cc(/C=C/C(=O)NO)ccc21 [Compound 112, 3-{1-[2-(Ethyl-propyl-amino)-ethyl]-1H-benzoimidazol-5-yl}-N-hydroxy-acrylamide]
12 | 2140 | 230 | O=C(/C=C/c1ccc2c(c1)ncn2C1CCN(CCc2ccccc2)C1)NO (stereo not shown) [Compound 93, (E)-N-hydroxy-3-(1-(1-phenethylpyrrolidin-3-yl)-1H-benzo[d]imidazol-5-yl)acrylamide]
13 | 3600 | 210 | CCCCc1nc2cc(/C=C/C(=O)NO)ccc2n1CCCNC(C)C [Compound 47, 3-[2-Butyl-1-(3-isopropylamino-propyl)-1H-benzoimidazol-5-yl]-N-hydroxy-acrylamide]
14 | 420 |  | CCCCCCc1nc2cc(/C=C/C(=O)NO)ccc2n1CCN(CC)CC [Compound 31, 3-[1-(2-Diethylamino-ethyl)-2-hexyl-1H-benzoimidazol-5-yl]-N-hydroxy-acrylamide]
15 | 490 | 110 | CCCN(CCC)CCn1cnc2cc(/C=C/C(=O)NO)ccc21 [Compound 120, 3-[1-(2-Dipropylamino-ethyl)-1H-benzoimidazol-5-yl]-N-hydroxy-acrylamide]
16 | 740 | 60 | CC(Cc1nc2cc(/C=C/C(=O)NO)ccc2n1CCCNC(C)C)CC(C)(C)C (stereo not shown) [Compound 32, N-Hydroxy-3-[1-(3-isopropylamino-propyl)-2-(2,4,4-trimethyl-pentyl)-1H-benzoimidazol-5-yl]-acrylamide]
17 | 910 | 37 | CC(Cc1nc2cc(/C=C/C(=O)NO)ccc2n1CCN)CC(C)(C)C (stereo not shown) [Compound 55, 3-[1-(2-Amino-ethyl)-2-(2,4,4-trimethyl-pentyl)-1H-benzoimidazol-5-yl]-N-hydroxy-acrylamide]
18 | 1000 | 120 | CCCCc1nc2cc(/C=C/C(=O)NO)ccc2n1C1CCN(C)C1 (stereo not shown) [Compound 81, 3-[2-Butyl-1-(1-methyl-pyrrolidin-3-yl)-1H-benzoimidazol-5-yl]-N-hydroxy-acrylamide]
19 | 3900 | 770 | CSc1nc2cc(/C=C/C(=O)NO)ccc2n1CC(C)(C)CN(C)C [Compound 129, 3-[1-(3-Dimethylamino-2,2-dimethyl-propyl)-2-methylsulfanyl-1H-benzoimidazol-5-yl]-N-hydroxy-acrylamide]
20 | 230 | 24 | CC(Cc1nc2cc(/C=C/C(=O)NO)ccc2n1CCNC(C)C)CC(C)(C)C (stereo not shown) [Compound 39, N-Hydroxy-3-[1-(2-isopropylamino-ethyl)-2-(2,4,4-trimethyl-pentyl)-1H-benzoimidazol-5-yl]-acrylamide]
21 | 2220 |  | CCCCc1nc2cc(/C=C/C(=O)NO)ccc2n1CC(C)(C)CN(C)C [Compound 3, 3-[2-Butyl-1-(3-dimethylamino-2,2-dimethyl-propyl)-1H-benzoimidazol-5-yl]-N-hydroxy-acrylamide]
22 |  | 320 | O=C(/C=C/c1ccc2c(c1)ncn2C1CCN(CCCc2ccccc2)C1)NO (stereo not shown) [Compound 98, (E)-N-hydroxy-3-(1-(1-(3-phenylpropyl)pyrrolidin-3-yl)-1H-benzo[d]imidazol-5-yl)acrylamide]
23 | 390 | 53 | CCCc1nc2cc(/C=C/C(=O)NO)ccc2n1CCN(C)CCC(C)(C)C [Compound 136, 3-(1-{2-[(3,3-Dimethyl-butyl)-methyl-amino]-ethyl}-2-propyl-1H-benzoimidazol-5-yl)-N-hydroxy-acrylamide]
24 | 2280 | 77 | CCN(CC)CCn1c(CCNC(=O)CC(C)(C)C)nc2cc(/C=C/C(=O)NO)ccc21 [Compound 59, N-{2-[1-(2-Diethylamino-ethyl)-5-(2-hydroxycarbamoyl-vinyl)-1H-benzoimidazol-2-yl]-ethyl}-3,3-dimethyl-butyramide]
25 | 1870 | 210 | C#CCCc1nc2cc(/C=C/C(=O)NO)ccc2n1CC(C)(C)CN(C)C [Compound 9, 3-[2-But-3-ynyl-1-(3-dimethylamino-2,2-dimethyl-propyl)-1H-benzoimidazol-5-yl]-N-hydroxy-acrylamide]
26 | 330 | 66 | CC(C)(C)CCNCCn1c(CC(C)(C)C)nc2cc(/C=C/C(=O)NO)ccc21 [Compound 131, 3-[1-[2-(3,3-Dimethyl-butylamino)-ethyl]-2-(2,2-dimethyl-propyl)-1H-benzoimidazol-5-yl]-N-hydroxy-acrylamide]
27 | 650 |  | CCCCc1nc2cc(/C=C/C(=O)NO)ccc2n1CCN(C)C [Compound 57, 3-[2-Butyl-1-(2-dimethylamino-ethyl)-1H-benzoimidazol-5-yl]-N-hydroxy-acrylamide]

Row | SMILES | GI50 [1] [nM] | IC50 [2] [nM]
28 | CCCCc1nc2cc(/C=C/C(=O)NO)ccc2n1CCN(C(C)C)C(C)C [Compound 43, 3-[2-Butyl-1-(2-diisopropylamimo-ethyl)-1H-benzoimidazol-5-yl]-N-hydroxy-acrylamide] | 1860 | 330
